Target: T1, HPA (Homo sapiens, UniProt Q9Y251)
T1 sequence (Q9Y251 158-543 limits assumed): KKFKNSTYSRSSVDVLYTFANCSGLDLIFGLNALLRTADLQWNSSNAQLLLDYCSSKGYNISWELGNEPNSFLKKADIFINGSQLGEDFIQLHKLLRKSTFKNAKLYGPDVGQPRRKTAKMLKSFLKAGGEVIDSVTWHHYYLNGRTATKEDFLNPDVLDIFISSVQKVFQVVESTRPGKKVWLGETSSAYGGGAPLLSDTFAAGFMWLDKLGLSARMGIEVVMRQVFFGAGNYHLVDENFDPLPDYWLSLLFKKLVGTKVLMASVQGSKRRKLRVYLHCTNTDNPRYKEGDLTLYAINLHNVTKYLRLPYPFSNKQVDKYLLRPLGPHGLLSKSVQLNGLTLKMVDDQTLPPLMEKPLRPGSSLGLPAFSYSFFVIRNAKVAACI
T1 sequence (Q9Y251 36-109 limits assumed): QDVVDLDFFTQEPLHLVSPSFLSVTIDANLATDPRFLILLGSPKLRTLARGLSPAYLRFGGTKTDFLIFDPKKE
Assay: Homogeneous time-resolved fluorescence (HTRF) HPA inhibition in vitro
Type: biochemical
Description: Active HPA was diluted with Buffer A to 120 ng mL^−1, biot‐HS‐K was diluted with Buffer B (pH 5.5) to 1.4 ng mL^−1, and SA‐d2 was diluted with Buffer C (pH 7.5) to 1 µg mL^−1, CV122 samples were diluted with Buffer A to different concentration gradients. Add 4 µL of sample solution and 3 µL of HPA solution or Buffer A to the micro‐96‐well plate. After incubating at 37 °C for 10 min, the enzyme reaction was started by adding 3 µL of biot‐HS‐K and incubating at 37 °C for 30 min. Then add 10 µL of SA‐d2 solution or Buffer C. After incubating for 15 min at room temperature, the HTRF signal was detected by a microplate reader, which was excited at 384 nm and emitted at 620 nm and 665 nm. The fluorescence intensity ratio of 665 nm/620 nm was used to calculate the average energy transfer rate (ΔF%) of each sample. The positive control system composed of biot‐HS‐K and SA‐d2 should produce the largest ΔF%, while the background fluorescence intensity of the negative control (biot‐HS‐K) should produce the smallest ΔF%.^[ [45] ^]

COC1OC(COS(=O)(=O)O)C(OC2OC(C(=O)O)C(OC3OC(COS(=O)(=O)O)C(OC4OC(C(=O)O)C(OC5OC(COS(=O)(=O)O)C(O)C(O)C5NS(=O)(=O)O)C(OS(=O)(=O)O)C4O)C(OS(=O)(=O)O)C3NS(=O)(=O)O)C(O)C2OS(=O)(=O)O)C(O)C1NS(=O)(=O)O (centres unmarked) [CV122]
IC50 rank in HPA inhibition screening (CV114-CV123 compared with fondaparinux, ****p < 0.0001): lowest IC50 values | IC50 (HTRF, in vitro): 2970 nM
